From ChEMBL document CHEMBL1125455, “Novel anthraquinone inhibitors of human leukocyte elastase and cathepsin G” (J Med Chem, 1992)
pIC50, pKi: −log10 of the molar value. The source made the active and inactive calls. The rule behind the calls is not given here.

What was measured:
Neutrophil elastase [1] = target: T1, Neutrophil elastase (Homo sapiens, UniProt P08246); assay: In vitro inhibition of human leukocyte elastase.
T1 sequence (P08246 whole entry): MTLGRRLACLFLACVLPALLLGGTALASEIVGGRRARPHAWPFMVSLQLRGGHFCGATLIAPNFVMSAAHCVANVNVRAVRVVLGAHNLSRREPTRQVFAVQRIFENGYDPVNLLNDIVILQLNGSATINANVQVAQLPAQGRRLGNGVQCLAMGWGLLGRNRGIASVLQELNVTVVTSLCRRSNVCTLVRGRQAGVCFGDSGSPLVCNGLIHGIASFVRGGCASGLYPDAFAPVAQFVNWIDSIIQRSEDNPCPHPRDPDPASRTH

Neutrophil elastase [2] = target: T1, Neutrophil elastase; assay: HLE-inhibitor (Human Leukocyte Elastase) dissociation constant determined by using Dixon Plot
[3] = target: T2, Cathepsin G (Homo sapiens) (UniProt P08311); assay: Inhibitory activity against Cathepsin G (CatG) at 58 uM concentration
T2 sequence (whole entry): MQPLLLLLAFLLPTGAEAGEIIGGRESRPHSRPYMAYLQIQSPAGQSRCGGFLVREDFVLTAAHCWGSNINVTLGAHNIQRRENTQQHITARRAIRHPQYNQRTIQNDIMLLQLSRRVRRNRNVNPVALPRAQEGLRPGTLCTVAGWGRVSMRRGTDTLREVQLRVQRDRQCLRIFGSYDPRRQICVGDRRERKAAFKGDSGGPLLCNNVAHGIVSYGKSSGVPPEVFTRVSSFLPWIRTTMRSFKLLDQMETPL

[4] = target: T3, Chymotrypsin-like elastase family member 2A (Sus scrofa) (UniProt P08419); assay: Inhibitory activity against Porcine Pancreatic Elastase (PPE) at 58 uM concentration
T3 sequence (whole entry): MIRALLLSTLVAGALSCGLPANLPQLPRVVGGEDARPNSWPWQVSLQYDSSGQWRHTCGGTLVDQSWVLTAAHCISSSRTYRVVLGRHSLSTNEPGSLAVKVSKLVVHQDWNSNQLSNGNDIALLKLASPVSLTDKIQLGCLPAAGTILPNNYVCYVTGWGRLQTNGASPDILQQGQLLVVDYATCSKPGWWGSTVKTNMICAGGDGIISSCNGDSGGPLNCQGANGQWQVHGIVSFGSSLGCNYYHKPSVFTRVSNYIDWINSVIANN

[5] = target: T4, Neutrophil elastase (Homo sapiens) (UniProt P08246); assay: Inhibitory activity against Human Leukocyte Elastase (HLE) at 58 uM concentration
T4 sequence (whole entry): T1 sequence (P08246 whole entry)

[6] = target: Chymotrypsinogen A (Bos taurus) (UniProt P00766); assay: Inhibitory activity against Chymotrypsinogen at 58 uM concentration
[7] = target: T3, Chymotrypsin-like elastase family member 2A (Sus scrofa); assay: Inhibitory activity against Porcine Pancreatic Elastase (PPE) at 62 uM concentration; NI = no inhibition
[8] = target: T2, Cathepsin G (Homo sapiens); assay: Inhibitory activity against Cathepsin G (CatG) at 62 uM concentration
Neutrophil elastase [9] = target: T1, Neutrophil elastase; assay: Compound was tested for the enzyme inhibitory activity against Human Leukocyte Elastase (HLE) at 62 uM concentration
[10] = target: T4, Neutrophil elastase (Homo sapiens); assay: Inhibitory activity against Human Leukocyte Elastase (HLE) at 62 uM concentration
Cathepsin G [11] = target: T5, Cathepsin G (Homo sapiens, UniProt P08311); assay: Compound was tested for the enzyme inhibitory activity against Cathepsin G; NI = no inhibition
T5 sequence (P08311 whole entry): T2 sequence (whole entry)

Neutrophil elastase [12] = target: T1, Neutrophil elastase; assay: Compound was tested for the enzyme inhibitory activity against Human Leukocyte elastase
Cathepsin G [13] = target: T5, Cathepsin G; assay: Compound was tested for the enzyme inhibitory activity against Cathepsin G (CatG); NI = no inhibition
Cathepsin G [14] = target: T5, Cathepsin G; assay: Inhibition of Cathepsin G (CatG)
Cathepsin G [15] = target: T5, Cathepsin G; assay: Compound was tested for the enzyme inhibitory activity against Cathepsin G
[16] = target: T2, Cathepsin G (Homo sapiens); assay: Inhibitory activity against Cathepsin G (CatG) at 62 uM concentration; NI = no inhibition
[17] = target: Chymotrypsinogen A (Bos taurus) (UniProt P00766); assay: Inhibitory activity against Chymotrypsinogen at 62 uM concentration; conditions: Sus scrofa
[18] = target: T3, Chymotrypsin-like elastase family member 2A (Sus scrofa); assay: Inhibitory activity against Porcine Pancreatic Elastase (PPE) at 62 uM concentration
[19] = target: T3, Chymotrypsin-like elastase family member 2A (Sus scrofa); assay: Inhibitory activity against Porcine Pancreatic Elastase (PPE) at 29 uM concentration; NI = no inhibition
[20] = target: Chymotrypsinogen A (Bos taurus) (UniProt P00766); assay: Inhibitory activity against Chymotrypsinogen at 29 uM concentration; NI = no inhibition
[21] = target: T2, Cathepsin G (Homo sapiens); assay: Inhibitory activity against Cathepsin G (CatG) at 29 uM concentration
[22] = target: T4, Neutrophil elastase (Homo sapiens); assay: Inhibitory activity against Human Leukocyte Elastase (HLE) at 29 uM concentration; NI = no inhibition
[23] = target: Chymotrypsinogen A (Bos taurus) (UniProt P00766); assay: Inhibitory activity against Chymotrypsinogen at 62 uM concentration; NI = no inhibition; conditions: Sus scrofa
[24] = target: T3, Chymotrypsin-like elastase family member 2A (Sus scrofa); assay: Inhibitory activity against Porcine Pancreatic Elastase (PPE) at 28 uM concentration; NI = no inhibition
[25] = target: T2, Cathepsin G (Homo sapiens); assay: Inhibitory activity against Cathepsin G (CatG) at 28 uM concentration
[26] = target: T4, Neutrophil elastase (Homo sapiens); assay: Inhibitory activity against Human Leukocyte Elastase (HLE) at 28 uM concentration
[27] = target: Chymotrypsinogen A (Bos taurus) (UniProt P00766); assay: Inhibitory activity against Chymotrypsinogen at 28 uM concentration

CCCCOC(=O)Oc1cc(OC(=O)OCCCC)c2c(c1)C(=O)c1cc(C)cc(OC(=O)OCCCC)c1C2=O
pIC50 (Neutrophil elastase [1]): 5.89

CCCCOC(=O)Oc1cccc2c1C(=O)c1c(OC(=O)OCCCC)cccc1C2=O
pKi (Neutrophil elastase [2]): 5.12
pIC50 (Neutrophil elastase [1]): 4.92

O=C1c2cccc(O)c2C(=O)c2c1ccc(Cc1ccccc1)c2O
pIC50 (Neutrophil elastase [1]): 4.89

O=C(O)c1cc(O)c2c(c1)C(=O)c1cc(O)cc(O)c1C2=O
inhibition [3]: 14%
inhibition [4]: 9%
inhibition [5]: 21%
inhibition [6]: 3%

CCCOc1cc(O)c2c(c1)C(=O)c1cc(C)cc(O)c1C2=O
inhibition [7]: inactive
inhibition [8]: 35%
pIC50 (Neutrophil elastase [9]): 5.23
inhibition [10]: 100%

COc1c(C)ccc2c1C(=O)c1ccccc1C2=O
IC50 (Cathepsin G [11]): Not Active
pIC50 (Neutrophil elastase [12]): < 4.22

COc1cccc2c1C(=O)c1c(ccc(CC(C)C)c1O)C2=O
IC50 (Cathepsin G [13]): No inhibition
pIC50 (Neutrophil elastase [1]): 4.96

CCCCCCc1ccc2c(c1O)C(=O)c1c(O)cccc1C2=O
pIC50 (Cathepsin G [14]): 4.55
pIC50 (Neutrophil elastase [1]): 5.38

CCCCOC(=O)Oc1cccc2c1C(=O)c1c(OC(=O)OCCCC)cc(C)cc1C2=O
pKi (Neutrophil elastase [2]): 5.72
pIC50 (Neutrophil elastase [1]): 5.29

CC(C)Cc1ccc2c(c1O)C(=O)c1c(O)cccc1C2=O
pIC50 (Neutrophil elastase [1]): 5.10

CCCCc1ccc2c(c1O)C(=O)c1c(O)cccc1C2=O
pIC50 (Neutrophil elastase [1]): 5.19

CCCc1ccc2c(c1O)C(=O)c1c(O)cccc1C2=O
pIC50 (Neutrophil elastase [1]): 5.38

CCCCCc1ccc2c(c1O)C(=O)c1c(O)cccc1C2=O
pIC50 (Neutrophil elastase [1]): 5.41

Cc1ccc2c(c1O)C(=O)c1ccccc1C2=O
pIC50 (Cathepsin G [15]): < 4.22
pIC50 (Neutrophil elastase [12]): 4.96

CCCCc1ccc2c(c1O)C(=O)c1c(OC)cccc1C2=O
pIC50 (Neutrophil elastase [1]): 5.23

C=CCc1ccc2c(c1O)C(=O)c1c(OC)cccc1C2=O
pIC50 (Cathepsin G [14]): < 4.22
pIC50 (Neutrophil elastase [1]): 4.96

CC(=O)Oc1cc(OC(C)=O)c2c(c1)C(=O)c1cc(C)cc(OC(C)=O)c1C2=O [EMODIN TRIACETATE]
inhibition [16]: inactive
inhibition [17]: 3%
pIC50 (Neutrophil elastase [9]): 4.89
inhibition [18]: 22%
inhibition [10]: 79%

COc1cc(OC)c2c(c1)C(=O)c1cc(CBr)cc(OC)c1C2=O
inhibition [19]: inactive
inhibition [20]: inactive
inhibition [21]: 14%
inhibition [22]: inactive

CCCCCc1ccc2c(c1O)C(=O)c1c(OC)cccc1C2=O
pIC50 (Cathepsin G [14]): < 4.22
pIC50 (Neutrophil elastase [1]): 5.21

O=C1c2cc(O)cc(O)c2C(=O)c2c(O)cc(CO)cc21
inhibition [23]: inactive
inhibition [8]: 22%
inhibition [18]: 4%
inhibition [10]: 26%

CC(=O)Oc1cc(OC(C)=O)c2c(c1)C(=O)c1cc(CBr)cc(OC(C)=O)c1C2=O
inhibition [24]: inactive
inhibition [25]: 9%
inhibition [26]: 28%
inhibition [27]: 3%

COc1cccc2c1C(=O)c1c(ccc(C)c1O)C2=O
IC50 (Cathepsin G [13]): Not Active
pIC50 (Neutrophil elastase [1]): 4.72
